{"source": "patent US20060293275A1", "about": "“Hgf production accelerator containing heparin-like oligosaccharide” (priority 2004, published 2006)", "key": {"lipoprotein lipase (LPL)": {"tested_on": "lipoprotein lipase (LPL)", "experiment": "LPL releasing activity (LPL amount in plasma by ELISA after tail vein administration)", "assay_type": "in vivo, Wister rat", "details": "rat, after 10 minutes", "description": "LPL releasing activity of the sugar chain compound such as oligosaccharide used in the agent of the present invention for promoting HGF production or a salt thereof can be assessed by administering the sugar chain compound or a salt thereof to a mouse or a rat, taking the plasma after a certain time, and measuring the amount of LPL in the plasma. The amount of LPL in the plasma can be determined by measuring LPL activity, or measuring the mass of LPL protein by ELISA.\nFor measuring LPL releasing activity, heparin fragments were administered to Wister rat (3-week old male) via the tail vein at 0.3 μg per 1 g of body weight and, after 10 minutes, blood was taken from axillary fossa venous plexus, and a LPL amount in the resulting plasma was measured by ELISA (Daiichi Pure Chemicals Co., Ltd). In high-molecular weight heparin, about 250 ng/mL LPL was released, but in low-molecular weight heparin (Fragmin, Kissei Pharmaceutical Co., Ltd.), released LPL amount was reduced to about 30% of the amount in the case of high-molecular weight heparin. […] In particular, in oligosaccharides not larger than octasaccharide, reduction in released LPL amount was remarkable."}, "[1]": {"tested_on": "fresh plasma taken from Wister rat", "experiment": "Anti-blood coagulation activity by activated partial thromboplastin time (APTT)", "assay_type": "biochemical", "details": "9 μg/mL or 3 μg/mL", "description": "Anti-blood coagulation activity of the sugar chain compound such as oligosaccharide or a salt thereof used in the agent of the present invention for promoting HGF production can be assessed by measuring an activated partial thromboplastin time (APTT) or anti-factor Xa activity according to the known methods that have been used for measuring anti-blood coagulation activity of low-molecular-weight heparin.\nRegarding the heparin fragments (oligosaccharides) obtained in Example 1, anti-blood coagulation activity and LPL releasing activity were measured. Anti-blood coagulation activity was assessed by comparing an activated partial thromboplastin time (APTT). APTT was measured using fresh plasma taken from Wister rat (male) and Data φ·APTT kit (Sysmex) which utilizes activation by ellagic acid. The heparin fragments were added to rat plasma at a concentration of 9 μg/mL or 3 μg/mL, and APTT values (second) were compared."}, "[2]": {"tested_on": "MRC-9 cells, human fetal lung fibroblasts", "experiment": "Activity to promote HGF production in MRC-9 cells (HGF in culture medium by ELISA)", "assay_type": "cell-based", "details": "0 to 50 μg/ml", "method": "An activity to promote HGF production of the agent of the present invention can be measured by comparing the HGF concentration in the culture medium of HGF-producing cells when the sugar chain compounds such as oligosaccharides or a salt thereof are added with that when they are not added, wherein the concentration of HGF can be measured by ELISA. As an HGF-producing cell, MRC-5 and MRC-9 cells, human fetal lung fibroblasts, can be used.\nActivities to promote HGF production of the heparin fragments (oligosaccharides) obtained in Example 1 were measured by using MRC-9 cells, human fetal lung fibroblasts. The cells were cultured with heparin fragments(oligosaccharides) and amounts of HGF produced by the cell were analyzed. First, MRC-9 cells were seeded onto a 48 well plate at a density of 5×10^4 cells/cm^2, and cultured in a DMEM medium containing 10% FCS for one day. After removing the medium, the cells were washed twice with 0.5 mL of PBS, and the medium was exchanged with a DMEM medium containing 1% FCS. Thereafter, the culture was continued. At this time, the heparin fragments obtained in Example 1 were added to the medium at a final concentration of 1 μg/ml. After 24 hours, the culture supernatant was recovered, and an amount of HGF secreted into the culture medium was measured by the ELISA method. […]"}}, "data": [{"smiles": "NC1C(O)OC(CO)C(OC2OC(C(=O)O)=CC(O)C2OS(=O)(=O)O)C1O", "note": "(stereo not drawn) [2-Sac-2S, ΔUA-2S-GlcN]", "values": [{"measurement": "LPL releasing activity (in words)", "setting": "lipoprotein lipase (LPL)", "result": "not detected"}, {"measurement": "anti-blood coagulation activity / extension of APTT (in words)", "setting": "[1]", "result": "not detected"}]}, {"smiles": "CC(=O)N[C@H]1C(O)O[C@H](COS(=O)(=O)O)[C@@H](O[C@@H]2OC(C(=O)O)=C[C@H](O)[C@H]2O)[C@@H]1O", "note": "(some centres unmarked) [2-Sac-6S, ΔUA-GlcNAc-6S]", "values": [{"measurement": "activity to promote HGF production of disaccharide compounds (in words)", "setting": "[2]", "result": "higher activity to promote HGF production than 2-Sac-2S"}, {"measurement": "LPL releasing activity (in words)", "setting": "lipoprotein lipase (LPL)", "result": "not detected"}, {"measurement": "anti-blood coagulation activity / extension of APTT (in words)", "setting": "[1]", "result": "not detected"}]}, {"smiles": "O=C(O)C1=C[C@H](O)[C@@H](O)[C@H](O[C@H]2[C@H](O)[C@@H](NS(=O)(=O)O)C(O)O[C@@H]2CO)O1", "note": "(some centres unmarked) [2-Sac-NS, ΔUA-GlcNS]", "values": [{"measurement": "activity to promote HGF production of disaccharide compounds (in words)", "setting": "[2]", "result": "higher activity to promote HGF production than 2-Sac-2S"}, {"measurement": "LPL releasing activity (in words)", "setting": "lipoprotein lipase (LPL)", "result": "not detected"}, {"measurement": "anti-blood coagulation activity / extension of APTT (in words)", "setting": "[1]", "result": "not detected"}]}]}
